Holding throughout (format): cell-based
Series [1] is described as follows: Cytotoxicity against mouse Mlg cells assessed as effect on cell viability up to 80 uM after 24 to 48 hrs by MTT assay. For orientation: Tetrazolium dyes change colour on reduction, which living cells bring about.
The target of series [2] is Transforming growth factor beta-1 proprotein/Mothers against decapentaplegic homolog 3 (Mus musculus, UniProt P04202+Q8BUN5). The experiment in a line: Inhibition of TGF beta1/Smad3 signaling in mouse NIH/3T3 cells harboring CAGA promoter incubated for 18 hrs in presence of TGF-beta1 by luciferase reporter gene assay.
The target in series [3] is Transforming growth factor beta-1 proprotein/Mothers against decapentaplegic homolog 3 (Mus musculus) (UniProt P04202+Q8BUN5). Put plainly: Inhibition of TGF beta1/Smad3 signaling in mouse NIH/3T3 cells harboring CAGA promoter at 10 uM incubated for 18 hrs in presence of TGF-beta1 by luciferase reporter gene assay relative to control. A general note: A reporter such as luciferase makes a cellular process visible.
Transforming growth factor beta-1 proprotein/Mothers against decapentaplegic homolog 3 (Mus musculus), sequence (P04202 279-390 limits assumed): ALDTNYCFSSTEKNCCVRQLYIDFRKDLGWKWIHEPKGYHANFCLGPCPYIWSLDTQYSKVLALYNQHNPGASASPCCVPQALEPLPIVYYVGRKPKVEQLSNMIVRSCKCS
Transforming growth factor beta-1 proprotein/Mothers against decapentaplegic homolog 3 (Mus musculus), sequence (Q8BUN5 2-425 partner limits assumed): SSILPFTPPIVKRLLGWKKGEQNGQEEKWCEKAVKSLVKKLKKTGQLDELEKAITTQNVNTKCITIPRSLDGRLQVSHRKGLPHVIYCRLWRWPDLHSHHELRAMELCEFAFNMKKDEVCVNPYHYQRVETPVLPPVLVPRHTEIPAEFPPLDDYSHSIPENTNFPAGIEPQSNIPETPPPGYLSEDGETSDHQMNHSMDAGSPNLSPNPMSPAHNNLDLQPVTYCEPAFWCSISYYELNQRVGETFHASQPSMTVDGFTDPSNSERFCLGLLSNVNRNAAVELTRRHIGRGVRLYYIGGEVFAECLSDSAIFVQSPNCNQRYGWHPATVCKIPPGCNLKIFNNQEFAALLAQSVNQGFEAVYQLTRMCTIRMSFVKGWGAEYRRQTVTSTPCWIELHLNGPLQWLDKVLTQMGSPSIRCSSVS

Transforming growth factor beta-1 proprotein/Mothers against decapentaplegic homolog 3, sequence (P04202 279-390 limits assumed): as the sequence (P04202 279-390 limits assumed) above
Transforming growth factor beta-1 proprotein/Mothers against decapentaplegic homolog 3, sequence (Q8BUN5 2-425 limits assumed): as the sequence (Q8BUN5 2-425 partner limits assumed) above

Take `CC(C)[C@@H]1CC[C@@]2(C)[C@H](O)CC[C@@]3(O)CO[C@@H]1[C@@H]32`: in series [1], the Activity entry is “Non-Toxic”.
The same measure, in the same setting: the result for `CO[C@@]12CC[C@@H](O)[C@@](C)(CC[C@@H]3[C@@H]1CC3(C)C)C2` reads “Non-Toxic”.
On the same count and under the same terms, the result for `C=C1CC[C@@H](O)[C@]2(C)CC[C@@H](C(C)C)[C@H](O)[C@@H]12` reads “Non-Toxic”.
The IC50 is the concentration that gives 50% inhibition. Regarding `Cc1cccc(-c2[nH]c(C(C)(C)C)nc2-c2ccc3nccnc3c2)n1`, the Activity result in series [1] was “Toxic”. Also, the IC50 in series [2] was 70.5 nM.
As for `C=C[C@](C)(O)CC[C@H]1C(=C)C[C@H](O)[C@H]2C(C)(C)CCC[C@]12C`, the Activity result in series [1] was “Non-Toxic”.
As usually defined, the inhibition is how much of the control response was suppressed. With `COc1ccc(C2CC(=O)c3c(O)cc(O)c(C)c3O2)cc1` (stereo not given), in series [1], the Activity result is on record as “Non-Toxic”. Further, in series [3], the inhibition came out at 93.1%. Also, the IC50 in series [2] came out at 380 nM.
As for `CC(C)[C@@H]1CC[C@@]2(C)C(=O)CCC(C=O)=C[C@@H]12`, the Activity result in series [1] is recorded as “Non-Toxic”.
Still for that read-out and setting: the result for `CC(C)[C@@H]1CC[C@@]2(C)[C@H](O)CCC(C=O)=C[C@H]12` reads “Non-Toxic”.
Regarding `Cc1ccc(=O)n(-c2ccccc2)c1` [PIRFENIDONE], the concentration for half-maximal inhibition (IC50) in series [2] came to 1430 nM.
On to `CC1(C)C[C@H]2[C@H]1CC[C@@]1(C)C[C@]2(O)CC[C@@H]1O`, for which the Activity entry in series [1] is given as “Non-Toxic”. For the same compound, the inhibition in series [3] was determined as 67.9%. Also, the IC50 in series [2] is 3670 nM.
Consider `C=C1CC[C@@H](O)[C@]2(C)CC[C@H](C(C)C)[C@@H](O)[C@H]12`, for which the Activity result in series [1] is recorded as “Non-Toxic”.
On the same count and under the same terms, the result for `CC(C)[C@@H]1CC[C@@]2(C)[C@H](O)CCC(CO)=C[C@@H]12` reads “Non-Toxic”; that for `CC(=O)[C@@H]1CC[C@H]2[C@H]1[C@@H](C(C)C)CC[C@]2(C)O`, “Non-Toxic”.
Still for that read-out and setting: the result for `CC(C)[C@H]1CC[C@@]2(C)[C@@H]1[C@@H]1O[C@]1(CO)CC[C@@H]2O` [SANICULAMOID B] reads “Non-Toxic”; that for `C=C1CCC(=O)[C@]2(C)CC[C@@H](C(C)C)[C@@H]2C1O` (stereo not given in full), “Non-Toxic”.

Values taken from ChEMBL document CHEMBL4364349, “In vitro screening for compounds from Hypericum longistylum with anti-pulmonary fibrosis activity” (Bioorg Med Chem Lett, 2019).
